From ChEMBL document CHEMBL5338739, “Discovery of Dual Lysine Methyltransferase G9a and EZH2 Inhibitors with In Vivo Efficacy against Malignant Rhabdoid Tumor” (J Med Chem, 2023) come the findings set out here.

Active and inactive are the calls of the source. No cut-off for these calls is given here.

In data set [1] the target is T1, N-lysine methyltransferase KMT5A (Homo sapiens) (UniProt Q9NQR1).
T1 sequence (whole entry): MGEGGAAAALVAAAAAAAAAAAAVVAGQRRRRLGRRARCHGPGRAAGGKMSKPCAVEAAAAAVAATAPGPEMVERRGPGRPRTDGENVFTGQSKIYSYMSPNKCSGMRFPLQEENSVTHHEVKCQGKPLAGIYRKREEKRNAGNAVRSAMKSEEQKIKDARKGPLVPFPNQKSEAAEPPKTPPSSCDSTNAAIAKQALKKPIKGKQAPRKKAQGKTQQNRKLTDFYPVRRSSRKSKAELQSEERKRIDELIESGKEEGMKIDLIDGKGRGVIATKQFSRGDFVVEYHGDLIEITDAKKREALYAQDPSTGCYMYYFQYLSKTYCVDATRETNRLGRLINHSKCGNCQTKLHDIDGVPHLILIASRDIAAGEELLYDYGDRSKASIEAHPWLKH
In words: Inhibition of SETD8 (unknown origin) using SAM as substrate at 10 uM by time-resolved fluorescence assay relative to control.

The target of data set [2] is T2, Histone-lysine N-methyltransferase EZH1 (Homo sapiens) (UniProt Q92800).
T2 sequence (whole entry): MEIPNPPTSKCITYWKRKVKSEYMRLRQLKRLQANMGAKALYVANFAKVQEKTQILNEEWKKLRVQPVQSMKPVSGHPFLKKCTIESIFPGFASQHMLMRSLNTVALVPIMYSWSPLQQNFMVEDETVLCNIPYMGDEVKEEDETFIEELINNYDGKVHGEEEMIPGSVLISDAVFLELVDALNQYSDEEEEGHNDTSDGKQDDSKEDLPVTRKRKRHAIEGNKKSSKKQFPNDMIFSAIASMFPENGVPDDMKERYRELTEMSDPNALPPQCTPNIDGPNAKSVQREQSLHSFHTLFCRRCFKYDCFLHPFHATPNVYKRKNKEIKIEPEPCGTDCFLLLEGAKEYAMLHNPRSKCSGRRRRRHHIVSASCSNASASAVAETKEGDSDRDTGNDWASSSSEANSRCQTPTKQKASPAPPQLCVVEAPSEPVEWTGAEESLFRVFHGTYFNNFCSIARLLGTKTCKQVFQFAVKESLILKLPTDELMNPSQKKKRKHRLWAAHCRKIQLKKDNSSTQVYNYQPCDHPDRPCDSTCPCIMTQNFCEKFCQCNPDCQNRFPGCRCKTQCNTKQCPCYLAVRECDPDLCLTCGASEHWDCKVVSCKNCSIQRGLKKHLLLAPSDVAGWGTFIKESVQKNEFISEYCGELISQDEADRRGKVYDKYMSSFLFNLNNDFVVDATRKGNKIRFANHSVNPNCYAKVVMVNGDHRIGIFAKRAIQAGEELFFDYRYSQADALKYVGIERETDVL
In words: Inhibition of human EZH1 using SAM as substrate at 10 uM by time-resolved fluorescence assay relative to control.

Data set [3] concerns the target Histone-lysine N-methyltransferase SETDB1 (Homo sapiens) (UniProt Q15047). In words: Inhibition of SETDB1 (unknown origin) using SAM as substrate at 10 uM by time-resolved fluorescence assay relative to control.
Data set [4] is described as follows: Tmax in Sprague-Dawley rat at 10 mg/kg, iv administered for 12 hrs by HPLC analysis. It counts as ADME, organism-based. The note with it: in vivo.
Data set [5] is described as follows: Apparent volume of distribution in Sprague-Dawley rat at 10 mg/kg, iv administered for 12 hrs by HPLC analysis. It counts as ADME, organism-based. The settings on record: in vivo, read-out: Vc.
Data set [6] is described as follows: AUC (0 to 24 hrs) in Sprague-Dawley rat at 10 mg/kg, iv administered for 12 hrs by HPLC analysis. The note with it: in vivo. On the set-up: dose 10 mg/kg, time 12 hrs, route iv. It counts as ADME, organism-based.
Data set [7] can be described thus: Oral bioavailability in Sprague-Dawley rat at 30 mg/kg administered for 24 hrs by HPLC analysis. The note with it: in vivo. It counts as ADME, organism-based.
A short description of data set [8]: Cytotoxicity against human L02 cells assessed as reduction in cell viability incubated for 72 hrs by MTT assay. It counts as toxicity, cell-based. (Tetrazolium assays rely on reduction of a dye to a coloured formazan, in cell work by metabolically active cells.)
In data set [9] the target is T3, Histone-lysine N-methyltransferase EHMT2 (Homo sapiens) (UniProt Q96KQ7).
T3 sequence (whole entry): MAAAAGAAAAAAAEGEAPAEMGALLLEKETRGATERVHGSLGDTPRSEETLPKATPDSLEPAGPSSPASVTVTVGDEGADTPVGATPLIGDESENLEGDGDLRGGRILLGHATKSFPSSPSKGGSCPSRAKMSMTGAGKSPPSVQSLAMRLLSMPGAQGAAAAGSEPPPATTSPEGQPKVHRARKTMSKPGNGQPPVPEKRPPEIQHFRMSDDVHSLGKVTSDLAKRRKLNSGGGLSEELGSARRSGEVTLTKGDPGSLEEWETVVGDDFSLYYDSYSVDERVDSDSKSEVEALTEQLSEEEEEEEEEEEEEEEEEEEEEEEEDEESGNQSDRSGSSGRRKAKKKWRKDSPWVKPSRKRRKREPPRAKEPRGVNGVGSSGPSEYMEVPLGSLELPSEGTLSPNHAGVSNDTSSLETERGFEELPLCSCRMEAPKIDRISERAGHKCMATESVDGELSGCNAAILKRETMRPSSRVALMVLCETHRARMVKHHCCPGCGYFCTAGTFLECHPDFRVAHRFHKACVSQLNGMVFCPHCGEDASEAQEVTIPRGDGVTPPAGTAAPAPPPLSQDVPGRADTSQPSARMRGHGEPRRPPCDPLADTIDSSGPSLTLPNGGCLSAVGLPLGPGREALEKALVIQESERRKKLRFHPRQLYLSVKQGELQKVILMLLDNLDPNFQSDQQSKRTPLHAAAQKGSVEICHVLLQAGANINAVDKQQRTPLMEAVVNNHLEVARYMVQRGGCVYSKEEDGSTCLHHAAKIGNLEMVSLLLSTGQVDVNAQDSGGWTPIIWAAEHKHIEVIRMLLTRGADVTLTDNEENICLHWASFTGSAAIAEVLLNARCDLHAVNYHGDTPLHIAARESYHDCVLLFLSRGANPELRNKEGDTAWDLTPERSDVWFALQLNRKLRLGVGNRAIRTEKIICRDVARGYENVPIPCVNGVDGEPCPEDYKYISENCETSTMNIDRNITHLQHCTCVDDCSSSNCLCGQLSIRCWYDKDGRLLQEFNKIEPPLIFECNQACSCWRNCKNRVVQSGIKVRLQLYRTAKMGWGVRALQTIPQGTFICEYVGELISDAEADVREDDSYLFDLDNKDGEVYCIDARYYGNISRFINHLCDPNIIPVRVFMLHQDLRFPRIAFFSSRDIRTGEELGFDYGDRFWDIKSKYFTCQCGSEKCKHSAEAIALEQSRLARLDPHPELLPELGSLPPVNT
In words: Binding affinity to recombinant EHMT2 G9a in human RD cells assessed as decrease in […] incubated for 1 hr by DARTS analysis. It counts as cell-based. The note with it: dose 5-20 µM.

Data set [10] concerns the target T3, Histone-lysine N-methyltransferase EHMT2 (Homo sapiens). In words: Binding affinity to recombinant EHMT2 G9a in human RD cells assessed as increase in protein thermal stability at 5 uM incubated for 4 hrs by CETSA based Western blot analysis. It counts as cell-based. On the technique in general: Immunoblotting shows a protein as a band on a membrane.
For data set [11], the system named is RD. In words: Antiproliferative activity against EZH2 and G9a knockdown human RD cells assessed as reduction in clone formation rate at 5 uM for 1 to 2 weeks with fresh medium replacement for every 2 to 3 days by crystal violet staining based microscopic analysis. It counts as functional, cell-based. The settings on record: time 1-2 weeks.

As for `COc1cc2c(NCc3c(C)cc(C)[nH]c3=O)nc(N3CCC(F)(F)CC3)nc2cc1OCCCN1CCCC1`, the inhibition in data set [1] was determined as 11.2%; in data set [2], 89.2%; in [3], 7.79%. Besides, in data set [4], the Tmax was 10.2 min. The Vd in data set [5] came out at 4.54 L/kg. The molecule further yielded an AUC(0-t) at 12 h in [6] of 1940 ng·h/mL. The molecule further yielded a bioavailability in data set [7] of 92%. The cytotoxic concentration (CC50) at 72 h in data set [8] is more than 100 µM. The Activity result in data set [9] was “Dose-Dependent Effect”. Also, the result in [10] was Active. Further, the result in data set [11] was inactive.

What is called inhibition is the percentage by which the read-out fell short of the control. Low values mean a response near the control, high ones a response far below the control. A word on the Tmax: it is the time at which the peak concentration occurs. A word on the AUC(0-t): it is the area under the concentration-time curve up to a stated or last time point. Low values mean less exposure, high ones more exposure. As a reminder, the bioavailability is the share of a dose that reaches the circulation, judged against a reference dose that is usually intravenous. Low readings indicate poor availability, high ones good availability. The CC50 is the concentration at which the toxic effect on the cells reaches its halfway point.
